The term EC50 denotes the concentration needed to bring the measured effect to its halfway point. Lower therefore signals a more potent agent. Usually pIC50 stands for the negative decadic logarithm of the IC50, by convention in mol/L. Read a high pIC50 as a low IC50.

pIC50: −log10 of the molar value.

Experimental findings from patent US8513430B2, “Substituted thiazol-2-ylamine derivatives, pharmaceutical compositions, and methods of use as 11-beta HSD1 modulators” (High Point Pharmaceuticals, LLC, priority 2010, dated 2013) are described below.

Test [1] has as its target T1, 11βHSD1 (Homo sapiens, UniProt P28845).
T1 construct: from tissue
The test is described as follows: in vitro 11β-HSD assay (human microsomes, CISBIO cortisol kit). Format: biochemical. As to conditions: 160 nM cortisone, 200 μM NADPH, 2 h at 37° C., pH 6.0. As to the method: The following assay methods were used to identify and evaluate compounds of Formula (I) that are effective in modulating 11βHSD1.
CISBIO Cortisol kit #62CO2PEB
Assay Buffer: (water based) used for Enzyme, Compounds and Microsomes: 20 mM Tris, 5 mM EDTA, and pH 6.0.
Enzyme Buffer: 333 μM NADPH (FAC 200 μM) and 266 nM Cortisone (FAC 160 nM).
1) Test compounds (10 mM stock in 100% DMSO) were diluted in Assay Buffer (see below) with 1% DMSO FAC and placed into the 96-well plate. Test compounds were typically tested over 10 concentrations (30 μM-0.3 nM).
2) 30 μL Enzyme Buffer, 10 μL Test Compound, 10 μL human microsomes were added to the test compounds and mixed gently by tapping the plate.
3) The plates were incubated for 2 h at 37° C.
4) 25 μL anti Cortisol-K and 25 μL Cortisol d2 were added to the plate and mixed gently by tapping the plate.
5) The plates were incubated at room temperature for 2 h.
6) The plates were read on an Envision model 2120 Perkin-Elmer using emission filters #205 and #217.

The target in test [2] is T1, 11βHSD1. Put plainly: Human adipocytes cell based assay (cortisone to cortisol, ELISA). As to conditions: human omental adipocytes, 300 nM cortisone, 24 hours at 37° C. As to the method:
Human Adipocytes Cell Based Assay
Cells were ordered from ZenBio, RTP, NC (www.zen-bio.com (OA-1096-3)) pre-plated (96 well). Cell Media was supplied by ZenBio (Omental Adipocyte Medium #OM-AM).
Test compounds were prepared at 10 concentrations (10 μM-0.1 nM). Dilutions were made up in Cell Media. Cell Media from the plate is aspirated and 97 μL was added to the wells.
The plates were incubated for 15 minutes (37° C.).
3 μL of […] cortisone (Sigma #C2755) (300 nM FAC) was added, for a total well volume of 100 μL.
The plates were incubated for 24 hours (37° C.).
The media was harvested from cells.
The samples were then assayed using Cortisol ELISA Kits (R & D Systems #SKGE008). Samples were diluted by a factor of 5. Specific instructions were included in the kit to quantify presence of cortisol in samples through an ELISA assay.
The plates were read on a Spectramax at 450 nm OD.
(In general: In an ELISA, binding on a coated surface is turned into a signal by an enzyme label.)

T1 sequence (P28845 whole entry): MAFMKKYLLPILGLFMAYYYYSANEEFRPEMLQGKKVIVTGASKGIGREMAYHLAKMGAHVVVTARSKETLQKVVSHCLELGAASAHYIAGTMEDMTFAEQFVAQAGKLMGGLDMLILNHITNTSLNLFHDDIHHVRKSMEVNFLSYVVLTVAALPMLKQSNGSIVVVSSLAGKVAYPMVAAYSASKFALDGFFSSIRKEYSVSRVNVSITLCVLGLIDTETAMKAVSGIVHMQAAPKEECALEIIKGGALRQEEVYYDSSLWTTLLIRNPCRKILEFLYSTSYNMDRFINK

Compound `O=C(N[C@H]1C2CC3CC1C[C@](O)(C3)C2)c1csc(NCCc2ccccn2)n1` [Example 7, 2-(2-Pyridin-2-yl-ethylamino)-thiazole-4-carboxylic acid [(E)-5-hydroxy-adamantan-2-yl]-amide] showed an EC50 at 11βHSD1 [1] of 127 nM.
Consider `COc1ccc(Nc2nc(C(=O)N[C@H]3C4CC5CC3C[C@](O)(C5)C4)cs2)cc1` [Example 9, 2-(4-Methoxy-phenylamino)-thiazole-4-carboxylic acid [(E)-5-hydroxy-adamantan-2-yl]-amide], for which, at 11βHSD1 [1], the EC50 was determined as 2 nM.
On to `O=C(N[C@H]1C2CC3CC1C[C@](O)(C3)C2)c1csc(Nc2ccccn2)n1` [Example 5, 2-(Pyridin-2-ylamino)-thiazole-4-carboxylic acid [(E)-5-hydroxy-adamantan-2-yl]-amide], for which the midpoint of the response at 11βHSD1 [1], the EC50, lay at 4000 nM.
On to `O=C(N[C@H]1C2CC3CC1C[C@](O)(C3)C2)c1csc(Nc2ccc(Cl)c(Cl)c2)n1` [Example 12, 2-(3,4-Dichloro-phenylamino)-thiazole-4-carboxylic acid [(E)-5-hydroxy-adamantan-2-yl]-amide], for which a half-maximal effect at 11βHSD1 [1] (EC50) was put at 112 nM.
On the same count and under the same terms, the figure for `O=C(N[C@H]1C2CC3CC1C[C@](O)(C3)C2)c1csc(Nc2cccnc2)n1` [Example 4, 2-(Pyridin-3-ylamino)-thiazole-4-carboxylic acid [(E)-5-hydroxy-adamantan-2-yl]-amide] is 26 nM; for `O=C(N[C@H]1C2CC3CC1C[C@](O)(C3)C2)c1csc(Nc2ccncc2)n1` [Example 3, 2-(Pyridin-4-ylamino)-thiazole-4-carboxylic acid [(E)-5-hydroxy-adamantan-2-yl]-amide] it is 110 nM.
`O=C(N[C@H]1C2CC3CC1C[C@](O)(C3)C2)c1csc(NCc2ccco2)n1` [Example 1, 2-[(Furan-2-ylmethyl)-amino]-thiazole-4-carboxylic acid [(E)-5-hydroxy-adamantan-2-yl]-amide] registered a concentration for a half-maximal effect (EC50) at 11βHSD1 [1] of 360 nM. This EC50 lies about 3.3-fold higher than the previous one.
For the compound `O=C(N[C@H]1C2CC3CC1C[C@](O)(C3)C2)c1csc(NCCc2ccccc2)n1` [Example 6, 2-(2-Phenyl-ethylamino)-thiazole-4-carboxylic acid [(E)-5-hydroxy-adamantan-2-yl]-amide], a half-maximal response on 11βHSD1 [1] (EC50) required 11 nM.
In the case of `O=C(N[C@H]1C2CC3CC1C[C@](O)(C3)C2)c1csc(Nc2ccc(Cl)cc2)n1` [Example 10, 2-(4-Chloro-phenylamino)-thiazole-4-carboxylic acid [(E)-5-hydroxy-adamantan-2-yl]-amide], the EC50 at 11βHSD1 [1] stood at 8.7 nM. The EC50 values of the last two compounds are within 1.5-fold of each other.
In turn, `O=C(N[C@H]1C2CC3CC1C[C@](O)(C3)C2)c1cnc(Nc2ccc(Cl)cn2)s1` [Example 17, 2-(5-Chloro-pyridin-2-ylamino)-thiazole-5-carboxylic acid [(E)-5-hydroxy-adamantan-2-yl]-amide] yielded an EC50 on 11βHSD1 [1] of 31 nM.
Consider `O=C(N[C@H]1C2CC3CC1C[C@](O)(C3)C2)c1csc(Nc2ccc(C(F)(F)F)cc2)n1` [Example 8, 2-(4-Trifluoromethyl-phenylamino)-thiazole-4-carboxylic acid [(E)-5-hydroxy-adamantan-2-yl]-amide], for which it took 13 nM to reach a half-maximal effect at 11βHSD1 [1] (EC50).
On the same count and under the same terms, the figure for `O=C(N[C@H]1C2CC3CC1C[C@](O)(C3)C2)c1csc(NCCc2cccnc2)n1` [Example 15, 2-(2-Pyridin-3-yl-ethylamino)-thiazole-4-carboxylic acid [(E)-5-hydroxy-adamantan-2-yl]-amide] is 165 nM.
Take `O=C(N[C@H]1C2CC3CC1C[C@](O)(C3)C2)c1csc(Nc2ccc(Cl)cn2)n1` [Example 2, 2-(5-Chloro-pyridin-2-ylamino)-thiazole-4-carboxylic acid [(E)-5-hydroxyadamantan-2-yl]-amide]: at 11βHSD1 [1], a half-maximal response (EC50) required 31 nM. The negative-log IC50 (pIC50) against 11βHSD1 [2] is 7.72.
At 11βHSD1 [1], `Cc1nc(NCCc2ccccc2)sc1C(=O)N[C@H]1C2CC3CC1C[C@](O)(C3)C2` [Example 18, 4-Methyl-2-phenethylamino-thiazole-5-carboxylic acid [(E)-5-hydroxy-adamantan-2-yl]-amide] came in with a half-maximal effective concentration (EC50) of 48 nM.
Compound `O=C(N[C@H]1C2CC3CC1C[C@](O)(C3)C2)c1csc(Nc2ccc(F)cc2)n1` [Example 11, 2-(4-Fluoro-phenylamino)-thiazole-4-carboxylic acid [(E)-5-hydroxy-adamantan-2-yl]-amide] had an EC50 on 11βHSD1 [1] of 2.7 nM. Against the preceding compound, the EC50 is about 18-fold lower.
As to `O=C(N[C@H]1C2CC3CC1C[C@](O)(C3)C2)c1csc(NCc2ccccc2)n1` [Example 14, 2-Benzylamino-thiazole-4-carboxylic acid [(E)-5-hydroxy-adamantan-2-yl]-amide], the EC50 at 11βHSD1 [1] worked out at 78 nM.
Still for that read-out and setting: under `O=C(N[C@H]1C2CC3CC1C[C@](O)(C3)C2)c1csc(NCCc2ccncc2)n1` [Example 16, 2-(2-Pyridin-4-yl-ethylamino)-thiazole-4-carboxylic acid [(E)-5-hydroxy-adamantan-2-yl]-amide] stands 369 nM.
On to `O=C(N[C@H]1C2CC3CC1C[C@](O)(C3)C2)c1csc(NCc2cccnc2)n1` [Example 13, 2-[(Pyridin-3-ylmethyl)-amino]-thiazole-4-carboxylic acid [(E)-5-hydroxy-adamantan-2-yl]-amide], for which, on 11βHSD1 [1], the EC50 is 39 nM.
